Laboratory results taken from PubChem BioAssay AID1963868 (Molecular Pharmacology Branch, DTP, NCI, 2024).

Tested on: KRAS PDC tumor spheroids (HUVEC+MSC), viability
Assay: Anticancer human tumor 254851-301-R-J1-PDC patient-derived colon carcinoma cell line growth inhibition [KRAS2]
Conditions: for IC50: curve of first compound; for viability, T/C: stronger effect = lower value
Outline: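 Combination screen of spheroid viability in tumor-cell co-cultures with endothelial (HUVEC) and mesenchymal stem cell stroma. Each agent was tested in half-log dilutions, topping at clinical Cmax or at 10 microM without a known Cmax.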

[1] = second compound 0.1 µM, first compound 0.0316 µM
[2] = second compound 0.1 µM, first compound 0.1 µM
[3] = second compound 0.316 µM, first compound 0.0316 µM
[4] = second compound 0.316 µM, first compound 0.1 µM
[5] = second compound 1 µM, first compound 0.0316 µM
[6] = second compound 1 µM, first compound 0.1 µM
[7] = second compound 3.16 µM, first compound 0.0316 µM
[8] = second compound 3.16 µM, first compound 0.1 µM
[9] = second compound 10 µM, first compound 0.0316 µM
[10] = second compound 10 µM, first compound 0.1 µM
[11] = second compound 0.1 µM, first compound 0.316 µM
[12] = second compound 0.1 µM, first compound 1 µM
[13] = second compound 0.1 µM, first compound 3.16 µM
[14] = second compound 0.1 µM, first compound 10 µM
[15] = second compound 0.316 µM, first compound 0.316 µM
[16] = second compound 0.316 µM, first compound 1 µM
[17] = second compound 0.316 µM, first compound 3.16 µM
[18] = second compound 0.316 µM, first compound 10 µM
[19] = second compound 1 µM, first compound 0.316 µM
[20] = second compound 1 µM, first compound 1 µM
[21] = second compound 1 µM, first compound 3.16 µM
[22] = second compound 1 µM, first compound 10 µM
[23] = second compound 3.16 µM, first compound 0.316 µM
[24] = second compound 3.16 µM, first compound 1 µM
[25] = second compound 3.16 µM, first compound 3.16 µM
[26] = second compound 3.16 µM, first compound 10 µM
[27] = second compound 10 µM, first compound 0.316 µM
[28] = second compound 10 µM, first compound 1 µM
[29] = second compound 10 µM, first compound 3.16 µM
[30] = second compound 10 µM, first compound 10 µM
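Also: spheroids exposed to compounds for seven days before readout.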
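For viability, T/C in this document: 100% = DMSO vehicle control luminescence of the spheroids.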

Row | Structure (SMILES) | IC50 (second compound 0.1 µM) | IC50 (second compound 0.316 µM) | IC50 (second compound 1 µM) | IC50 (second compound 3.16 µM) | IC50 (second compound 10 µM) | viability, T/C [1] | viability, T/C [2] | viability, T/C [3] | viability, T/C [4] | viability, T/C [5] | viability, T/C [6] | viability, T/C [7] | viability, T/C [8] | viability, T/C [9] | viability, T/C [10] | viability, T/C [11] | viability, T/C [12] | viability, T/C [13] | viability, T/C [14] | viability, T/C [15] | further results
1 | CC(C)n1nc(-c2ccc3oc(N)nc3c2)c2c(N)ncnc21 + COc1cc2nc(C)nc(NC(C)c3cc(N)cc(C(F)(F)F)c3)c2cc1OC1CCOC1 | 20.7 nM | 21.1 nM | 20.7 nM | 20.1 nM | 11.6 nM | 34.7% | 21.4% | 38.7% | 24% | 37% | 23.6% | 32.6% | 22.5% | 34.2% | 21% | – | – | – | – | – | viability, T/C (second compound 0.1 µM, first compound 0.000316 µM): 99%; viability, T/C (second compound 0.1 µM, first compound 0.001 µM): 118%; viability, T/C (second compound 0.1 µM, first compound 0.00316 µM): 91.2%; viability, T/C (second compound 0.1 µM, first compound 0.01 µM): 76.2%; viability, T/C (second compound 0.316 µM, first compound 0.000316 µM): 102%; viability, T/C (second compound 0.316 µM, first compound 0.001 µM): 100%; viability, T/C (second compound 0.316 µM, first compound 0.00316 µM): 81.7%; viability, T/C (second compound 0.316 µM, first compound 0.01 µM): 70.2%; viability, T/C (second compound 1 µM, first compound 0.000316 µM): 88.7%; viability, T/C (second compound 1 µM, first compound 0.001 µM): 98.6%; viability, T/C (second compound 1 µM, first compound 0.00316 µM): 87.2%; viability, T/C (second compound 1 µM, first compound 0.01 µM): 72.2%; viability, T/C (second compound 3.16 µM, first compound 0.000316 µM): 85.3%; viability, T/C (second compound 3.16 µM, first compound 0.001 µM): 98.2%; viability, T/C (second compound 3.16 µM, first compound 0.00316 µM): 88.2%; viability, T/C (second compound 3.16 µM, first compound 0.01 µM): 76.7%; viability, T/C (second compound 10 µM, first compound 0.000316 µM): 86.4%; viability, T/C (second compound 10 µM, first compound 0.001 µM): 97%; viability, T/C (second compound 10 µM, first compound 0.00316 µM): 73.7%; viability, T/C (second compound 10 µM, first compound 0.01 µM): 51.9%
2 | CC1(C)CCC(CN2CCN(c3ccc(C(=O)NS(=O)(=O)c4ccc(NCC5CCOCC5)c([N+](=O)[O-])c4)c(Oc4cnc5[nH]ccc5c4)c3)CC2)=C(c2ccc(Cl)cc2)C1 + COc1cc2nc(C)nc(NC(C)c3cc(N)cc(C(F)(F)F)c3)c2cc1OC1CCOC1 | > 10000 nM | > 10000 nM | > 10000 nM | 3720 nM | 1730 nM | 103% | 95% | 86.5% | 83.9% | 88.7% | 88.1% | 82.2% | 89.3% | 86.6% | 83.8% | 95.7% | 97.6% | 91.2% | 83.2% | 92% | viability, T/C [16]: 79.3%; viability, T/C [17]: 88.6%; viability, T/C [18]: 66.4%; viability, T/C [19]: 79.8%; viability, T/C [20]: 78.1%; viability, T/C [21]: 74.9%; viability, T/C [22]: 49.2%; viability, T/C [23]: 81.2%; viability, T/C [24]: 76.4%; viability, T/C [25]: 53.3%; viability, T/C [26]: 29.6%; viability, T/C [27]: 72.5%; viability, T/C [28]: 73.9%; viability, T/C [29]: 24.2%; viability, T/C [30]: 6.7%
3 | COc1cc(Nc2ncc3c(n2)-c2ccc(Cl)cc2C(c2c(F)cccc2OC)=NC3)ccc1C(=O)O + COc1cc2nc(C)nc(NC(C)c3cc(N)cc(C(F)(F)F)c3)c2cc1OC1CCOC1 | 88.4 nM | 85.9 nM | 80.7 nM | 77.1 nM | 48.3 nM | 77.7% | 42% | 83.9% | 39.8% | 77.4% | 39.1% | 74.5% | 38.8% | 58.6% | 34.1% | 31.5% | 25.1% | 14% | 9.19% | 30.7% | viability, T/C [16]: 24.1%; viability, T/C [17]: 17%; viability, T/C [18]: 8.65%; viability, T/C [19]: 30.1%; viability, T/C [20]: 24.6%; viability, T/C [21]: 18.5%; viability, T/C [22]: 8.42%; viability, T/C [23]: 30.2%; viability, T/C [24]: 25.8%; viability, T/C [25]: 20.3%; viability, T/C [26]: 10.9%; viability, T/C [27]: 28.9%; viability, T/C [28]: 25%; viability, T/C [29]: 22.4%; viability, T/C [30]: 16.4%
4 | COc1cc2nccc(Oc3ccc(NC(=O)C4(C(=O)Nc5ccc(F)cc5)CC4)cc3)c2cc1OC + COc1cc2nc(C)nc(NC(C)c3cc(N)cc(C(F)(F)F)c3)c2cc1OC1CCOC1 | > 10000 nM | > 10000 nM | > 10000 nM | > 10000 nM | 2670 nM | 101% | 109% | 85.9% | 108% | 103% | 106% | 103% | 104% | 64.5% | 103% | 114% | 99% | 58% | 96.4% | 122% | viability, T/C [16]: 90%; viability, T/C [17]: 66.2%; viability, T/C [18]: 98.8%; viability, T/C [19]: 104%; viability, T/C [20]: 90%; viability, T/C [21]: 42.1%; viability, T/C [22]: 84.4%; viability, T/C [23]: 87.7%; viability, T/C [24]: 80.6%; viability, T/C [25]: 20.9%; viability, T/C [26]: 92.7%; viability, T/C [27]: 90%; viability, T/C [28]: 67.2%; viability, T/C [29]: 4%; viability, T/C [30]: 90.1%
